Test results published in the supplement of paper PMC10307832.

Columns and labels:
Assay in all cases: relative viability (nuclei count vs DMSO), 5 days (fraction); higher = more cells survive
[1] = compound: CCn1c(-c2nonc2N)nc2cnc(Oc3cccc(NC(=O)c4ccc(OCCN5CCOCC5)cc4)c3)cc21 + CCNC(=O)c1noc(-c2cc(C(C)C)c(O)cc2O)c1-c1ccc(CN2CCOCC2)cc1 [Luminespib] (partner 0.01 µM)
In short: (§1)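 Dosing by pin tool came one day after lung cancer cell lines were seeded in 1536-well plates, using either one drug or a fixed anchor-drug dose plus five library-drug doses (not always all listed) in √10 steps. After 5 days, nuclei were counted on 4× images. Relative viability is treated-well nuclei count divided by vehicle-well nuclei count, and values are medians of duplicate plates.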

[2] = compound: CCn1c(-c2nonc2N)nc2cnc(Oc3cccc(NC(=O)c4ccc(OCCN5CCOCC5)cc4)c3)cc21 + CC(C)C[C@H](NC(=O)[C@H](Cc1ccccc1)NC(=O)c1cnccn1)B(O)O [Bortezomib] (partner 0.002 µM)
In short: as §1

Mirin + Luminespib = compound: N=C1NC(=O)/C(=C/c2ccc(O)cc2)S1 [Mirin] + CCNC(=O)c1noc(-c2cc(C(C)C)c(O)cc2O)c1-c1ccc(CN2CCOCC2)cc1 [Luminespib] (partner 0.01 µM)
In short: as §1

[3] = compound: CCC1=CN=CN=C1N2CCN(CC2)CC3=NC4=C(N3)C=C(C=C4)C(F)(F)F + Nc1nc2[nH]cc(CCc3ccc(C(=O)N[C@@H](CCC(=O)O)C(=O)O)cc3)c2c(=O)[nH]1 [Pemetrexed] (partner 0.2 µM)
In short: as §1

| Cell Line | relative viability ([1]; first compound 0.04 µM) | relative viability ([1]; first compound 0.1265 µM) | relative viability ([1]; first compound 0.4 µM) | relative viability ([1]; first compound 1.265 µM) | relative viability ([1]; first compound 4 µM) | relative viability ([2]; first compound 0.04 µM) | relative viability ([2]; first compound 0.1265 µM) | relative viability ([2]; first compound 0.4 µM) | relative viability ([2]; first compound 1.265 µM) | relative viability ([2]; first compound 4 µM) | relative viability (Mirin + Luminespib; first compound 0.25 µM) | relative viability (Mirin + Luminespib; first compound 0.7906 µM) | relative viability (Mirin + Luminespib; first compound 2.5 µM) | relative viability (Mirin + Luminespib; first compound 7.906 µM) | relative viability (Mirin + Luminespib; first compound 25 µM) | relative viability ([3]; first compound 0.04 µM) | relative viability ([3]; first compound 0.1265 µM) | relative viability ([3]; first compound 0.4 µM) | relative viability ([3]; first compound 1.265 µM) | relative viability ([3]; first compound 4 µM) |
| --- | --- | --- | --- | --- | --- | --- | --- | --- | --- | --- | --- | --- | --- | --- | --- | --- | --- | --- | --- | --- |
| HCC-15 | 0.301 | 0.227 | 0.376 | 0.207 | 0.249 | 1.2 | 0.992 | 0.882 | 0.757 | 0.913 | 0.353 | 0.391 | 0.289 | 0.452 | 0.274 | 0.217 | 0.204 | 0.224 | 0.236 | 0.218 |
| HCC-44 | 0.772 | 0.974 | 0.478 | 0.17 | 0.126 | 0.889 | 0.902 | 0.56 | 0.305 | 0.248 | 0.968 | 1.19 | 0.805 | 0.939 | 1.05 | 0.635 | 0.63 | 0.684 | 0.685 | 0.644 |
| HCC-78 | – | – | – | – | – | 0.465 | 0.53 | 0.494 | 0.605 | 0.705 | – | – | – | – | – | 0.913 | 0.829 | 0.905 | 0.898 | 0.952 |
| HCC-366 | – | – | – | – | – | 1.32 | 1.11 | 0.151 | 0.0688 | 0.0348 | – | – | – | – | – | 0.174 | 0.22 | 0.156 | 0.137 | 0.15 |
| HCC-827 | 1.09 | 0.592 | 0.792 | 0.591 | 0.588 | 0.99 | 1.04 | 0.906 | 0.666 | 0.885 | 0.673 | 0.665 | 0.724 | 0.841 | 1.03 | 0.268 | 0.221 | 0.276 | 0.242 | 0.278 |
| IA-LM | – | – | – | – | – | 1.31 | 0.972 | 0.99 | 0.795 | 0.811 | – | – | – | – | – | – | – | – | – | – |
| LK-2 | 0.216 | 0.147 | 0.169 | 0.202 | 0.244 | – | – | – | – | – | 0.148 | – | 0.19 | 0.153 | 0.133 | 0.281 | 0.259 | 0.253 | 0.199 | 0.302 |
| NCI-H358 | 0.667 | 0.302 | – | 0.535 | 0.198 | – | – | – | – | – | 0.562 | 0.408 | 0.502 | 0.36 | 0.413 | 0.159 | 0.193 | 0.176 | 0.151 | 0.167 |
| NCI-H522 | 1.04 | 1.27 | 0.853 | 0.797 | 0.767 | – | – | – | – | – | 0.884 | 1.11 | 1.23 | 0.875 | 0.801 | 0.855 | 1.2 | 0.892 | 0.876 | 0.958 |
| NCI-H727 | 0.418 | 0.264 | 0.352 | 0.379 | 0.413 | 1.44 | 0.983 | 0.787 | 0.97 | 0.88 | 0.515 | 0.307 | 0.453 | 0.265 | 0.316 | – | – | – | – | – |
| NCI-H1299 | – | – | – | – | – | 1.06 | 0.975 | 0.929 | 0.825 | 0.734 | – | – | – | – | – | – | – | – | – | – |
| NCI-H1395 | 0.674 | 0.849 | 0.538 | 0.384 | 0.449 | – | – | – | – | – | 0.687 | 0.449 | 0.662 | 0.649 | 0.622 | 0.862 | 0.754 | 0.896 | – | 0.845 |
| NCI-H1623 | 0.527 | 0.555 | 0.509 | 0.49 | 0.706 | – | – | – | – | – | 0.547 | 0.506 | 0.574 | 0.449 | 0.325 | – | – | – | – | – |
| NCI-H1648 | – | – | – | – | – | – | – | – | – | – | – | – | – | – | – | 0.614 | – | – | 0.769 | 0.683 |
| NCI-H1703 | – | – | – | – | – | 0.369 | 0.283 | 0.178 | 0.187 | 0.178 | – | – | – | – | – | – | – | – | – | – |
| NCI-H1793 | 0.217 | 0.22 | 0.159 | 0.18 | 0.237 | – | – | – | – | – | 0.572 | – | 0.235 | 0.196 | 0.171 | 0.862 | 0.786 | 0.613 | 0.52 | 0.82 |
| NCI-H1944 | 0.575 | 0.728 | 0.765 | 0.675 | 0.56 | – | – | – | – | – | 0.679 | 0.751 | 0.694 | 0.543 | 0.359 | 0.702 | 0.561 | 0.61 | 0.541 | 0.699 |
| NCI-H2170 | 0.344 | 0.453 | 0.926 | 0.478 | 0.474 | – | – | – | – | – | 0.828 | 0.656 | 0.934 | 0.693 | 0.663 | 0.265 | 0.266 | 0.291 | 0.256 | 0.263 |
| NCI-H2342 | 0.763 | 0.847 | 0.715 | 0.665 | 0.785 | – | – | – | – | – | 0.671 | 0.815 | 0.753 | 0.592 | 0.7 | 0.785 | 0.751 | 0.652 | 0.518 | 0.625 |
| SK-MES-1 | 0.728 | 0.681 | 0.525 | 0.485 | 0.37 | – | – | – | – | – | 0.869 | 0.915 | 0.88 | 0.919 | 0.7 | 1.03 | 1.01 | 1 | 0.993 | 1.03 |
| SW 900 | 0.178 | 0.197 | 0.178 | 0.154 | 0.174 | – | – | – | – | – | 0.164 | 0.178 | 0.206 | 0.174 | 0.154 | 0.439 | 0.464 | 0.495 | – | 0.458 |
